Where only a bound is given, the exact number is not on record here.

Usually AC50 stands for the concentration giving half of the maximal activity seen. Read a low AC50 as greater potency.

One experiment concerns the target Vasopressin V1a receptor (Homo sapiens, UniProt P37288).
In experiment [1] the target is T1, Muscarinic acetylcholine receptor M1 (Homo sapiens, UniProt P11229).
T1 sequence (P11229 whole entry): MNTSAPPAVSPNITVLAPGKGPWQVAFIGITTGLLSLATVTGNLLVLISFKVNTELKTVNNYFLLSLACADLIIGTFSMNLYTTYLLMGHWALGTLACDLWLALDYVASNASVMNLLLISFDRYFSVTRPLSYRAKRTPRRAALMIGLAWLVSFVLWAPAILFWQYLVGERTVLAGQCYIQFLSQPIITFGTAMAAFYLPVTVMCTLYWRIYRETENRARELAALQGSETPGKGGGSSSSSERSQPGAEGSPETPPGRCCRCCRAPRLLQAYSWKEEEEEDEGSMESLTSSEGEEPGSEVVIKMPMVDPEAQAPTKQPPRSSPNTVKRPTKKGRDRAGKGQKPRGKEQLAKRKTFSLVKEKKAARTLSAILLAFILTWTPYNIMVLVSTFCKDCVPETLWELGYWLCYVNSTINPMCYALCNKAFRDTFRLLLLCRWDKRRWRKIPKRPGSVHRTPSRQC
The experiment is classed as functional.

The target in another experiment is Cannabinoid receptor 1 (Homo sapiens, UniProt P21554). The experiment is classed as functional, cell-based.
Chain of Cannabinoid receptor 1 (P21554 whole entry): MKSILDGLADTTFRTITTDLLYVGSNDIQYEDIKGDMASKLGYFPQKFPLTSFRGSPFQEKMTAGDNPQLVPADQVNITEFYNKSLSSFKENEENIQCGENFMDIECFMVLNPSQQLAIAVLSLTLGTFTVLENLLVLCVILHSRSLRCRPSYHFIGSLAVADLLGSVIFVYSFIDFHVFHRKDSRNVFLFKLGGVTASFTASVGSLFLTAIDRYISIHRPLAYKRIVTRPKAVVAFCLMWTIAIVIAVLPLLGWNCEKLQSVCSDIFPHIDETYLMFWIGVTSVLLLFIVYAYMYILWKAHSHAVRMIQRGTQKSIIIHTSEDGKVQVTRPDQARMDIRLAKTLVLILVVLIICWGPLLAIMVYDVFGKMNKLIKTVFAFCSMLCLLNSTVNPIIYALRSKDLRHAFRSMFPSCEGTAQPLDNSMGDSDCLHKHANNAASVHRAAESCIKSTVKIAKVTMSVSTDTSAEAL
The target in the next experiment is T2, Estrogen receptor (Homo sapiens, UniProt P03372).
T2 sequence (P03372 whole entry): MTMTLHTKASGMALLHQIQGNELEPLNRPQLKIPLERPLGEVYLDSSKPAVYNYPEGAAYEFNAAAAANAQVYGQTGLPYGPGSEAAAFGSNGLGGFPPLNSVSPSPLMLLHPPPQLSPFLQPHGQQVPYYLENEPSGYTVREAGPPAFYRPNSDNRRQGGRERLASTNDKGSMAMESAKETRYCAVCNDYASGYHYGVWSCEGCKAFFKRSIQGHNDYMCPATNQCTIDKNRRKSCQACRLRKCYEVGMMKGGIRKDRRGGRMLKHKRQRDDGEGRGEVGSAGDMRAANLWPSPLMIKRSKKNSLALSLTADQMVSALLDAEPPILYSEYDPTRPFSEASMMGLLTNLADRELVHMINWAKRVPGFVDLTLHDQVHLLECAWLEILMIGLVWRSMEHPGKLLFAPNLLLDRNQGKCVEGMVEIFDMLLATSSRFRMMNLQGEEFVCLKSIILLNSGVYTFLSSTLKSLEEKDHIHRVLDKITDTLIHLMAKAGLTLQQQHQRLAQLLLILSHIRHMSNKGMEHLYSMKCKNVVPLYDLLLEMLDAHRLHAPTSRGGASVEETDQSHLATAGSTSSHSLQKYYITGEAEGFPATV

For the next experiment, the target named is Histamine H1 receptor (Homo sapiens, UniProt P35367).
Chain of Histamine H1 receptor (P35367 whole entry): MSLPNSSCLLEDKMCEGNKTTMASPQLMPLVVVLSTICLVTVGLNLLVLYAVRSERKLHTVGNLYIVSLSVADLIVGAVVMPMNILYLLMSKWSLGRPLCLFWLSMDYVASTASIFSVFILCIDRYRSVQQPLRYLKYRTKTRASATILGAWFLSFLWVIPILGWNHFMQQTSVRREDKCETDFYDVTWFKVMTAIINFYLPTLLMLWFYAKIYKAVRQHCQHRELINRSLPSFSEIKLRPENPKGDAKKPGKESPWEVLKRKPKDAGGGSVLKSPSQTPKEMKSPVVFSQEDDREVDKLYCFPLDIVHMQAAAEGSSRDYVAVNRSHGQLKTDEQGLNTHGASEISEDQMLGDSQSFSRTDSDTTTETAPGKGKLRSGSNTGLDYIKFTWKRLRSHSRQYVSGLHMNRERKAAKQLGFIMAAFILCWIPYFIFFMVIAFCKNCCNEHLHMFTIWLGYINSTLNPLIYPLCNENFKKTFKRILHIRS
The target in another experiment is T3, Progesterone receptor (Homo sapiens, UniProt P06401).
T3 sequence (P06401 whole entry): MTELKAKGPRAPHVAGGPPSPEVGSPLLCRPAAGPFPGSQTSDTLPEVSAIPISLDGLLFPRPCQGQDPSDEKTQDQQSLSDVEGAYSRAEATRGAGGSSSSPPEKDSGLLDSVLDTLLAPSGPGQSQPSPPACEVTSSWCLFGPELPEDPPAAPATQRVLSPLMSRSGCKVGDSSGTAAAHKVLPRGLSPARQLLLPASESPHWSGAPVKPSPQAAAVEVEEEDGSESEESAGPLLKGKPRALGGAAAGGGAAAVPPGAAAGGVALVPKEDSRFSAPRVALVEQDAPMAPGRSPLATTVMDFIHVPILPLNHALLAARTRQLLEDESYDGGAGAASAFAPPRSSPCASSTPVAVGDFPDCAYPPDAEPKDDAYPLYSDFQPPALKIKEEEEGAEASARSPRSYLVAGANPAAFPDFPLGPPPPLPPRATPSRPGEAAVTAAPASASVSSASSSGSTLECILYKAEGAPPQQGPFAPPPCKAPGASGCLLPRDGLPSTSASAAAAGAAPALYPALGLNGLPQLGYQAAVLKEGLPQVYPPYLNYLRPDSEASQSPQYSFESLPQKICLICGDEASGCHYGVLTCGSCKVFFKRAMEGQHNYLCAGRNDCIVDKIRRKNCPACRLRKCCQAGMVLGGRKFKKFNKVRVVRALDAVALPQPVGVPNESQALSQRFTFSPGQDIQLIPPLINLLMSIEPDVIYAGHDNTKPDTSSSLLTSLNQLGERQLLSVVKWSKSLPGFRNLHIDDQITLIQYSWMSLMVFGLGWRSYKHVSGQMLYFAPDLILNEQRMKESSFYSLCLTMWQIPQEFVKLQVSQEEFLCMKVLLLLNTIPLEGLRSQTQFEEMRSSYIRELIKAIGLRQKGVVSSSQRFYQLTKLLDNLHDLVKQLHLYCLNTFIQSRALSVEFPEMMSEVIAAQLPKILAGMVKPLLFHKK
The experiment is classed as functional.

The target in experiment [2] is T4, Equilibrative nucleoside transporter 1 (Homo sapiens, UniProt Q99808).
T4 sequence (Q99808 whole entry): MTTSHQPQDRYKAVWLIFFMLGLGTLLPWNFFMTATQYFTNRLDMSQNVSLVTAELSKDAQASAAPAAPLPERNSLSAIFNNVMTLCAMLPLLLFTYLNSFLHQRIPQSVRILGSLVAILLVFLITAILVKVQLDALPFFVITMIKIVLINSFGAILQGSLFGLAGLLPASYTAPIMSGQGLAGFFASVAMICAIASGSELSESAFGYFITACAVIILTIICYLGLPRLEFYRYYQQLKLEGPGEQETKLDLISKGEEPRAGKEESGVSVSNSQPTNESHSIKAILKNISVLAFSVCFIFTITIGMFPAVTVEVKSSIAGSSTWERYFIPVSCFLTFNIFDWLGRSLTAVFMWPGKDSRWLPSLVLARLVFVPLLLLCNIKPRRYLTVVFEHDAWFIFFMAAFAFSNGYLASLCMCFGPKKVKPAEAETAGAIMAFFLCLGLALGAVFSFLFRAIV
Note: assay procedure not described here.

Chain of Vasopressin V1a receptor (P37288 whole entry): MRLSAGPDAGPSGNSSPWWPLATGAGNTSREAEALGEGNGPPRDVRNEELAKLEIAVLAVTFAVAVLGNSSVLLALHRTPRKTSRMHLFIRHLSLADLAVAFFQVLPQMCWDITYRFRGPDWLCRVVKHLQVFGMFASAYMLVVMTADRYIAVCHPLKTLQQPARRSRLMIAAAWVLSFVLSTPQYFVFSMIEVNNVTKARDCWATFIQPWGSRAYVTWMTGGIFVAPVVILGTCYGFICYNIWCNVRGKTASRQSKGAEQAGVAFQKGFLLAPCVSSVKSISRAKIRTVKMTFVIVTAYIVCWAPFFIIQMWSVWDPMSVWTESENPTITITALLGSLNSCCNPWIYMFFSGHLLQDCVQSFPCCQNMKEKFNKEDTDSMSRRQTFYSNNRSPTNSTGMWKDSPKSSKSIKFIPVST

With `C[C@@H]1CCC[C@H](C)N1NC(=O)c1ccc(Cl)c(S(N)(=O)=O)c1` [CLOPAMIDE], the AC50 (at Vasopressin V1a receptor; in experiment [1]; at Cannabinoid receptor 1; on Estrogen receptor; on Histamine H1 receptor; at Progesterone receptor) was above 30 µM in each case. This compound had an AC50 in experiment [2] above 30 µM.

Take `COc1cccc(N(C)C(=S)Oc2ccc3c(c2)CCCC3)n1` [LIRANAFTATE]: the AC50 (at Vasopressin V1a receptor; in experiment [1]; at Cannabinoid receptor 1; on Estrogen receptor; on Histamine H1 receptor; at Progesterone receptor) was above 30 µM in each case. The compound also yielded an AC50 in experiment [2] above 30 µM.

Regarding `NS(=O)(=O)c1cc(C(=O)O)cc(N2CCCC2)c1Oc1ccccc1` [PIRETANIDE], the half-maximal activity concentration (AC50) (at Vasopressin V1a receptor; in experiment [1]; on Cannabinoid receptor 1; on Estrogen receptor; on Histamine H1 receptor; at Progesterone receptor) was above 30 µM each time.

As for `CC(C)=CCOc1ccc(/C=C/C(=O)c2ccc(OCC=C(C)C)cc2OCC(=O)O)cc1` [SOFALCONE], the AC50 (on Vasopressin V1a receptor; in experiment [1]; at Cannabinoid receptor 1; on Estrogen receptor; at Histamine H1 receptor; on Progesterone receptor) was above 30 µM throughout. Moreover, the AC50 in experiment [2] was above 30 µM.

For `CN(C)c1cc(NC(=O)CNC(C)(C)C)c(O)c2c1C[C@H]1C[C@H]3[C@H](N(C)C)C(O)=C(C(N)=O)C(=O)[C@@]3(O)C(O)=C1C2=O` [TIGECYCLINE], the AC50 is above 30 µM on Vasopressin V1a receptor; 27 µM in experiment [1]; above 30 µM at Estrogen receptor; above 30 µM at Histamine H1 receptor; above 30 µM on Progesterone receptor; 39.5 µM in experiment [2].

The record behind these values is ChEMBL document CHEMBL5291721, “A preclinical secondary pharmacology resource illuminates target-adverse drug reaction associations of marketed drugs” (Nat Commun, 2023).
